Data taken from patent publication US20140113342A1, “Production of 1,2-Propanediol in Cyanobacteria” (Algenol Biofuels Inc., priority 2012, published 2014).

Key:
[1] = tested on: Synechococcus sp. PCC 7002; test: Tolerance testing to 1,2-propanediol added to culture medium; type: cell-based; conditions: one week
Text: (§1) The tolerance of cyanobacterial strains PCC 6803 and PCC 7002 to the presence of accumulated 1,2-propanediol in the culture medium was examined by adding a one time bolus of varying amounts of 1,2-propanediol (1%, 2%, 3% and 5%) to exponential phase cultures and comparing the growth of these cultures to a wild type culture with no addition. Growth was monitored by optical density (OD750) for one week. […] PCC 7002.

[2] = tested on: Synechocystis sp. PCC 6803; test: as above; type: cell-based; conditions: one week
Text: as §1

[3] = 1%, 2%, 3% and 5% 1,2-propanediol
[4] = up to 3% 1,2-propanediol, one time bolus to exponential phase culture

## CC(O)CO (centres unmarked) [1,2-propanediol]
[1]; [3]
  lethal effect (complete bleaching): No lethal effect
[1]; [4]
  growth of cultures (OD750) compared to wild type culture with no addition: no difference in the growth
[2]; [3]
  lethal effect (complete bleaching): No lethal effect
[2]; 5% 1,2-propanediol, one time bolus
  growth of cultures (OD750) compared to wild type culture with no addition: less growth, discoloration and clumping
[2]; [4]
  growth of cultures (OD750) compared to wild type culture with no addition: no difference in the growth
